Measured values from the NIST ThermoML archive (doi:10.1016/j.jct.2015.01.012).
Where “and” joins values, the source holds several entries; their conditions need not be identical. Equal entries are not always repeated. Numbers after ± are expanded uncertainties.

Conditions: Crystal, Calculated from knudsen effusion weight loss

CCn1c(-c2ccccc2)cc2ccccc21 [1-ethyl-2-phenylindole]
vapor or sublimation pressure (327.18 K): 7.2e-05 ± 6e-05 kPa and 6.9e-05 ± 6e-05 kPa and 7.1e-05 ± 6e-05 kPa
vapor or sublimation pressure (329.18 K): 9.5e-05 ± 6e-05 kPa and 9.1e-05 ± 6e-05 kPa and 8.9e-05 ± 6e-05 kPa
vapor or sublimation pressure (331.09 K): 0.000115 ± 6e-05 kPa and 0.000114 ± 6e-05 kPa and 0.000119 ± 6e-05 kPa
vapor or sublimation pressure (333.18 K): 0.000144 ± 6e-05 kPa and 0.000143 ± 6e-05 kPa and 0.000145 ± 6e-05 kPa
vapor or sublimation pressure (335.18 K): 0.00019 ± 6e-05 kPa and 0.000184 ± 6e-05 kPa and 0.000192 ± 6e-05 kPa
vapor or sublimation pressure (337.19 K): 0.000239 ± 6.1e-05 kPa and 0.00024 ± 6.1e-05 kPa
vapor or sublimation pressure (339.17 K): 0.000291 ± 6.1e-05 kPa and 0.000287 ± 6.1e-05 kPa and 0.000307 ± 6.1e-05 kPa
vapor or sublimation pressure (341.17 K): 0.000379 ± 6.1e-05 kPa and 0.000368 ± 6.1e-05 kPa and 0.000387 ± 6.2e-05 kPa
vapor or sublimation pressure (343.08 K): 0.000472 ± 6.2e-05 kPa and 0.000478 ± 6.2e-05 kPa
vapor or sublimation pressure (345.16 K): 0.000624 ± 6.4e-05 kPa and 0.000605 ± 6.4e-05 kPa and 0.000625 ± 6.4e-05 kPa
vapor or sublimation pressure (347.08 K): 0.000779 ± 6.6e-05 kPa and 0.000766 ± 6.6e-05 kPa and 0.000775 ± 6.6e-05 kPa
vapor or sublimation pressure (349.08 K): 0.000974 ± 6.9e-05 kPa and 0.000987 ± 6.9e-05 kPa and 0.000986 ± 6.9e-05 kPa

Cn1c(-c2ccccc2)cc2ccccc21 [1-methyl-2-phenylindole]
vapor or sublimation pressure (331.17 K): 7.4e-05 ± 6e-05 kPa and 7.7e-05 ± 6e-05 kPa
vapor or sublimation pressure (333.17 K): 0.000104 ± 6e-05 kPa and 0.000102 ± 6e-05 kPa and 9.9e-05 ± 6e-05 kPa
vapor or sublimation pressure (335.1 K): 0.00013 ± 6e-05 kPa and 0.000126 ± 6e-05 kPa and 0.000128 ± 6e-05 kPa
vapor or sublimation pressure (337.18 K): 0.000157 ± 6e-05 kPa and 0.000154 ± 6e-05 kPa and 0.000158 ± 6e-05 kPa
vapor or sublimation pressure (339.21 K): 0.000204 ± 6e-05 kPa and 0.000197 ± 6e-05 kPa and 0.000214 ± 6e-05 kPa
vapor or sublimation pressure (341.12 K): 0.000252 ± 6.1e-05 kPa and 0.000254 ± 6.1e-05 kPa and 0.000251 ± 6.1e-05 kPa
vapor or sublimation pressure (343.17 K): 0.000316 ± 6.1e-05 kPa and 0.000308 ± 6.1e-05 kPa and 0.000323 ± 6.1e-05 kPa
vapor or sublimation pressure (345.14 K): 0.000404 ± 6.2e-05 kPa and 0.00039 ± 6.2e-05 kPa and 0.000414 ± 6.2e-05 kPa
vapor or sublimation pressure (347.08 K): 0.000497 ± 6.3e-05 kPa and 0.000501 ± 6.3e-05 kPa and 0.000494 ± 6.3e-05 kPa
vapor or sublimation pressure (349.17 K): 0.000593 ± 6.4e-05 kPa and 0.000586 ± 6.3e-05 kPa and 0.000585 ± 6.3e-05 kPa
vapor or sublimation pressure (351.21 K): 0.000772 ± 6.6e-05 kPa and 0.000745 ± 6.6e-05 kPa
vapor or sublimation pressure (353.12 K): 0.00092 ± 6.8e-05 kPa and 0.000943 ± 6.9e-05 kPa and 0.000939 ± 6.9e-05 kPa

c1ccc(-c2cc3ccccc3[nH]2)cc1 [2-phenyl-1H-indole]
vapor or sublimation pressure (360.16 K): 0.000122 ± 6e-05 kPa and 0.000119 ± 6e-05 kPa and 0.000116 ± 6e-05 kPa
vapor or sublimation pressure (362.11 K): 0.000157 ± 6e-05 kPa and 0.000149 ± 6e-05 kPa and 0.000155 ± 6e-05 kPa
vapor or sublimation pressure (364.08 K): 0.000184 ± 6e-05 kPa and 0.000182 ± 6e-05 kPa and 0.000176 ± 6e-05 kPa
vapor or sublimation pressure (366.16 K): 0.000217 ± 6e-05 kPa and 0.000214 ± 6e-05 kPa and 0.000227 ± 6.1e-05 kPa
vapor or sublimation pressure (368.13 K): 0.00027 ± 6.1e-05 kPa and 0.000262 ± 6.1e-05 kPa and 0.000278 ± 6.1e-05 kPa
vapor or sublimation pressure (370.1 K): 0.000331 ± 6.1e-05 kPa and 0.000325 ± 6.1e-05 kPa and 0.000324 ± 6.1e-05 kPa
vapor or sublimation pressure (372.16 K): 0.000392 ± 6.2e-05 kPa and 0.000393 ± 6.2e-05 kPa and 0.000412 ± 6.2e-05 kPa
vapor or sublimation pressure (374.12 K): 0.000491 ± 6.2e-05 kPa and 0.000456 ± 6.2e-05 kPa and 0.0005 ± 6.3e-05 kPa
vapor or sublimation pressure (376.1 K): 0.00059 ± 6.4e-05 kPa and 0.000574 ± 6.3e-05 kPa and 0.000592 ± 6.4e-05 kPa
vapor or sublimation pressure (378.15 K): 0.000701 ± 6.5e-05 kPa and 0.000693 ± 6.5e-05 kPa and 0.000735 ± 6.5e-05 kPa
vapor or sublimation pressure (380.12 K): 0.000868 ± 6.7e-05 kPa and 0.000885 ± 6.8e-05 kPa and 0.000832 ± 6.7e-05 kPa
vapor or sublimation pressure (382.1 K): 0.001023 ± 9.4e-05 kPa and 0.001052 ± 9.6e-05 kPa and 0.001046 ± 9.6e-05 kPa
